Laboratory results reported in the NIST ThermoML archive (doi:10.1016/j.tca.2017.08.004).

What was measured:
[1] = Crystal; for vapor or sublimation pressure: Transpiration method
[2] = Molar enthalpy of transition or fusion; settings: Crystal; DSC

CC(=O)c1ccc(N=C2SCC3CCCN2C3)cc1 (stereo unspecified)
[1]
Settings | vapor or sublimation pressure [kPa]
370.15 K | 1.72e-05
372.15 K | 2.17e-05
373.15 K | 2.52e-05
374.15 K | 2.65e-05
375.15 K | 3.08e-05
377.15 K | 3.73e-05
379.15 K | 4.55e-05
381.15 K | 5.67e-05
383.15 K | 6.72e-05
385.15 K | 8.05e-05
387.15 K | 9.63e-05
389.15 K | 0.0001225
390.15 K | 0.0001287
391.15 K | 0.0001437
392.15 K | 0.0001637

Fc1ccc(N=C2[Se]CC3CCCN2C3)cc1 (stereo unspecified) [N-(4-fluorophenyl)-3-selena-1-azabicyclo[3.3.1]nonan-2-imine]
Settings | Molar enthalpy of transition or fusion [kcal/mol]
[2] | 5.23

[1]
Settings | Normal melting temperature [°C] | vapor or sublimation pressure [kPa]
344.15 K | – | 6.71e-05
346.15 K | – | 8.23e-05
348.15 K | – | 0.0001009
350.15 K | – | 0.0001254
352.15 K | – | 0.0001539
354.15 K | – | 0.0001821
357.15 K | – | 0.0002441
359.15 K | – | 0.0002956
360.15 K | – | 0.0003273
361.15 K | – | 0.00036
362.15 K | – | 0.0003964
363.15 K | – | 0.0004316
364.15 K | – | 0.0004719
365.15 K | – | 0.0005306
DTA | 103.1 | –

N#Cc1ccc(N=C2SCC3CCCN2C3)cc1 (stereo unspecified)
[1]
Settings | vapor or sublimation pressure [kPa]
341.15 K | 4.41e-05
343.15 K | 6.35e-05
345.15 K | 8.28e-05
347.15 K | 0.0001196
349.15 K | 0.0001553
351.15 K | 0.0002074
353.15 K | 0.0002772
354.15 K | 0.0002989
356.15 K | 0.0004234
358.15 K | 0.000541
360.15 K | 0.0007001
361.15 K | 0.0008286

CC(C)c1ccc(N=C2SCC3CCCN2C3)cc1 (stereo unspecified)
[1]
Settings | vapor or sublimation pressure [kPa]
308.15 K | 7.9e-06
310.15 K | 1.01e-05
311.15 K | 1.19e-05
313.15 K | 1.61e-05
314.15 K | 1.86e-05
315.15 K | 2.13e-05
316.15 K | 2.3e-05
317.15 K | 2.74e-05
318.15 K | 3.07e-05
319.15 K | 3.29e-05
320.15 K | 3.89e-05
322.15 K | 4.8e-05
323.15 K | 5.57e-05
